Patent US20240228536A1, “PEPTIDES FOR USE IN SKIN AND HAIR PIGMENTATION” (Follicum AB, priority 2020, published 2024)

Key:
Assay type in all cases: cell-based, human
skin equivalents = test: Total melanin assay
Protocol: The skin equivalents used in this study was from the same donors as in Example 2. The determination of the total melanin content of the skin equivalent was determined using a total melanin assay.
The total melanin content of the SE was calculated by dissolving the SE in Soluene and reading the absorbance against a standard curve. The SEs were removed from culture on day 20 and washed with PBS. They were then transferred to a glass centrifuge tube and 500 μl Soluene added. The tubes were then covered with […]®, gently vortexed and placed on the Thermomixer at 50° C. for 1 hour. The tubes were then gently vortexed and 150 μl of the sample and synthetic melanin standards pipetted in triplicate into a glass 96 well plate. The absorbance was then measured at 490 nm on a Spectrophotometer. Results are presented in μg/ml against a standard curve. The change of melanin content is expressed as a percentage change versus vehicle control samples. An ANOVA (with Dunnett's post-test) was used for the statistical analysis.
Three experiments were conducted, and the same donors were used as in Example 2. The sample sizes were as follows: experiment 1 n=2, experiment 2 n=4 and experiment 3 n=7. Peptides 1 (SEQ ID NO: 2), 3 (SEQ ID NO: 3) and 4 (SEQ ID NO: 4) were tested.

[1] = system: Melanoderms Mel-300-A (donor); test: Skin equivalent culture, peptides in formulation, photographic assessment of pigmentation; details: 7 days; for pigmentation of SEs (visual assessment), response by concentration: 0.4%, 1% and 2% in formulation B, relative to vehicle controls; for pigmentation of SEs (visual assessment): in formulation B, 25 μl topical, vs formulation B only and peptide dissolved in water (10 mg/ml)
Protocol: Pigmented skin equivalents (SEs), Melanoderms Mel-300-A (donor) were obtained from Mattek Ltd together with the associated media […]-113 and hanging well plates. The skin equivalent surface area was 63.6 mm^2. Other equipment used included SMZ1000 Stereo 10 Microscope (Nikon); UC30 Microscope Camera (Olympus); Sterile Phosphate-Buffered Saline (PBS, Thermofisher, UK); 12-well Tissue Culture Plates (Sarstedt). All incubations were carried out in a humidified incubator maintained at 37° C. with 5% CO2. Pure peptide (>99%) was obtained from Biomatik, USA as acetate salt. The Melanoderms were prepared by carefully removing the agarose with sterile forceps and placing in 5 ml pre-warmed culture medium in hanging plates and incubated overnight. […] The tissue surface was photographed using an Olympus camera system attached to an inverted microscope to record initial pigmentation levels. SEs were transferred back to hanging well plates containing 5 ml fresh media. Three SEs were removed to provide baseline day 0 controls for analysis using WS staining and qPCR analysis. SEs (n=3 per treatment) were topically treated for 7 days with 25 μl of the various peptide concentrations in formulations as prepared in Example 12 in parallel with relevant controls. […] Each formulation was applied to the surface of SEs using a positive displacement pipette and spread evenly using a sterile microbiological loop. SEs were maintained at 37° C., 5% CO2 in a humidified incubator with media refreshed every other day until the end of treatment. On day 7 SEs were removed from culture and formulation carefully removed using a sterile microbiological loop and the surface rinsed in PBS then blotted dry with a sterile cotton bud. […] The pigmentation of the Melanoderms was macroscopically assessed by capturing high-resolution images using the Olympus microscope camera.

[2] = system: Pigmented skin equivalents (SEs), Melanoderms Mel-300-A (donor) and Mel-300-C-2 (donor); test: Skin equivalent culture, photographic assessment of pigmentation
Protocol: The skin equivalent surface area was 63.6 mm^2. Other equipment used included SMZ1000 Stereo Microscope (Nikon); UC30 Microscope Camera (Olympus); Phosphate-Buffered Saline (PBS); 6-well Tissue Culture Plates (Sarstedt); Image J software (https://imagej.nih.gov); Paintshop Photo Pro Software (Corel). The Melanoderms were prepared by carefully removing the agarose with sterile forceps and placing them in pre-warmed culture medium (37° C.) for an hour prior to treatment. The Melanoderms were then topically treated (without rubbing) with 25 μl of the various peptides, dissolved in dH2O at 10 mg/ml. […] The SEs were examined and removed from culture when skin darkening became visible. The pigmentation of the Melanoderms was macroscopically assessed by capturing high-resolution images using the Olympus microscope camera. […] They were then placed into a 6-well plate containing 1 ml PBS/well and images captured at ×8 magnification. The images were then processed using Image J & Paintshop Photo Pro software, to determine a quantifiable pixel area, which equated to the level of pigmentation present in the skin equivalent. The image brightness was normalised and the image gray-scaled using Paintshop Photo Pro, then Image J was used to threshold the image. The pigmentation was quantified by assessing total pixel area of pigmentation coverage in a fixed sample area. An ANOVA test (Dunnett's post-test) was used for the statistical analysis. Three different experiments were conducted. In the first, skin equivalents from both donors were included, and in experiment 2 and 3, only the […] donor was included. The SE of the […] donor from the first experiment received 5 treatments of 25 μl of peptide solution at 10 mg/ml; starting on the first day following receipt then on days 3, 5, 9 and 12. Peptides 1 (SEQ ID NO: 2), 3 (SEQ ID NO: 3) and 4 (SEQ ID NO: 4) were tested. The images were taken on Day 14. In experiment 2, peptide 3 and 4 were selected for testing to see if it had any efficacy in reducing melanin content or the distribution of melanin throughout the SE. This time, 5 SEs were used per treatment to improve statistical robustness. The experiment was continued for 20 days with treatments on days 0, 3, 7 and 12 and medium changes every other day. In experiment 3 a more highly pigmented SE ([…] donor melanocytes) was used and with an increased sample size with n=7 per treatment. […] Treatment was repeated on days 5, 9, 12 and 15 with medium changed every other day.

[3] = experiments 1 and 3, 10 mg/ml topical, day 20
[4] = experiment 1, donor, 10 mg/ml, 20 days in culture
[5] = experiment 1, donor, 5 topical treatments of 25 μl at 10 mg/ml in dH2O, images Day 14
[6] = experiment 3, more highly pigmented SE (donor), 10 mg/ml, n=7

In the case of “Asn-Ala-His-Met (NAHM; (1)..(4) Peptide 1)”, the “total melanin content of skin equivalents vs vehicle control” value (“total melanin content … vs vehicle control” for short) (skin equivalents; [3]) is reported as “increase in melanin content”, the “pigmentation of SEs (visual assessment), response by concentration” value [1] is reported as “highest response at the higher 1% and 2% concentrations” and the “pigmentation of SEs (visual assessment)” value [1] is reported as “more pigmented than the vehicle control”. For the same substance, the “pigmentation of skin equivalents (photographic assessment) compared to vehicle control” value (shortened to “pigmentation … compared to vehicle control”) [2, 4] was “somewhat darker and mottled appearance”, the “pigmentation … compared to vehicle control” value [2, 5] was “more pigmented compared to the vehicle” and the “pigmentation … compared to vehicle control” value [2, 6] was “increase in pigmentation”.
“Asn-Ala-Ala-Met (NAAM; (1)..(4) Peptide 4)” was tested, and the “total melanin content … vs vehicle control” value (skin equivalents; experiment 2, 10 mg/ml topical, day 20, n=4) was “significant increase in melanin content”, the “total melanin content … vs vehicle control” value (skin equivalents; [3]) was “increase in melanin content” and the “pigmentation of SEs (visual assessment), response by concentration” value [1] was “approximately equal increase in pigmentation relative to vehicle controls”. For the same substance, the “pigmentation of SEs (visual assessment)” value [1] was “more pigmented than the vehicle control”, the “pigmentation … compared to vehicle control” value [2, 4] was “somewhat darker and mottled appearance” and the “pigmentation … compared to vehicle control” value [2, 5] was “more pigmented compared to the vehicle”. The “pigmentation … compared to vehicle control” value ([2]; experiment 2, donor, 10 mg/ml, 20 days, n=5) was “increase in pigmentation compared to the vehicle control samples” and the “pigmentation … compared to vehicle control” value [2, 6] was “increase in pigmentation”.
